Laboratory results: the NIST ThermoML archive (doi:10.1021/acs.jced.5b00662)
Values joined by “and” are separate entries in the source; they are usually repeats but may differ in a detail not shown here. Identical values can stand only once.

Legend:
[1] = refractive index (Na D-line) (dimensionless); settings: 101.33 kPa, Liquid, Standard Abbe refractometry
[2] = 101.33 kPa, Liquid; for speed of sound: Sing-around technique in a fixed-path interferometer; for mass density: Vibrating tube method; for viscosity: Concentric cylinders viscometry
[3] = xn = mol fraction of the nth substance listed; settings: 100 kPa, Liquid; for speed of sound: Sing-around technique in a fixed-path interferometer; for mass density: Vibrating tube method

OCCO [1,2-ethanediol]
Settings | mass density, [2] | refractive index, [1] | speed of sound, [2] [m/s] | viscosity, [2] [mPa·s]
283.15 K | 1120.2 kg/m3 | 1.43461 | 1689.9 | –
288.15 K | 1118.2 kg/m3 | 1.43312 | 1678.3 | 26.8
293.15 K | 1114.6 kg/m3 and 1113.3 kg/m3 | 1.43167 | 1666.5 | 21.2
298.15 K | 1111.1 kg/m3 | 1.43 | 1654.7 | 17.13
303.15 K | 1106.3 kg/m3 and 1107.6 kg/m3 | 1.42855 | 1642.9 | 14
308.15 K | 1104.1 kg/m3 | – | 1631.1 | 11.58
313.15 K | 1099.2 kg/m3 and 1100.5 kg/m3 | 1.42562 | 1619.3 | 9.627
318.15 K | 1097 kg/m3 | – | – | 8.182
323.15 K | 1092.1 kg/m3 and 1093.4 kg/m3 | 1.4226 | 1595.5 | 6.98
328.15 K | 1089.8 kg/m3 | – | – | 6.007
333.15 K | 1084.8 kg/m3 and 1086.2 kg/m3 | 1.41955 | 1571.5 | 5.197
338.15 K | 1082.6 kg/m3 | – | – | 4.555
343.15 K | 1078.9 kg/m3 and 1077.5 kg/m3 | 1.41655 | 1547.4 | 4.01
348.15 K | 1075.2 kg/m3 | – | – | 3.552
353.15 K | 1071.5 kg/m3 | 1.41351 | – | 3.161
358.15 K | 1067.8 kg/m3 | – | – | 2.835
363.15 K | 1064 kg/m3 | – | – | 2.552
368.15 K | 1060.2 kg/m3 | – | – | 2.306
373.15 K | 1056.4 kg/m3 | – | – | 2.102

OCCO [1,2-ethanediol] + O
[3]
Settings | mass density, x1 = 0.9886 [kg/m3] | mass density, x1 = 0.9943 [kg/m3] | mass density, x1 = 0.9959 [kg/m3] | speed of sound, x1 = 0.9886 [m/s] | speed of sound, x1 = 0.9943 [m/s] | speed of sound, x1 = 0.9959 [m/s]
283.15 K | 1119.9 | 1120.07 | 1120.11 | 1690.2 | 1689 | 1690.6
288.15 K | 1116.43 | – | – | 1678.4 | 1678.1 | 1678.6
293.15 K | 1112.94 | 1113.11 | 1113.15 | 1666.6 | 1666.3 | 1666.6
298.15 K | 1109.46 | – | – | 1654.7 | 1654.8 | 1654.6
303.15 K | 1105.95 | 1106.11 | 1106.15 | 1643 | 1643 | 1642.7
308.15 K | 1102.43 | – | – | 1631.2 | 1631.3 | 1630.9
313.15 K | 1098.89 | 1099.05 | 1099.1 | 1619.5 | 1619.4 | 1619.1
323.15 K | 1091.75 | 1091.9 | 1091.95 | 1595.7 | 1595.5 | 1595.2
333.15 K | 1084.51 | 1084.67 | 1084.72 | 1571.7 | 1571.5 | 1571.2
343.15 K | 1077.16 | 1077.33 | 1077.37 | 1547.6 | 1547.4 | 1547.1

COCCOCCOCCOCCOC [2,5,8,11,14-pentaoxapentadecane]
Settings | mass density, [2] | refractive index, [1] | speed of sound, [2] [m/s] | viscosity, [2] [mPa·s]
283.15 K | 1020.7 kg/m3 | 1.43599 | 1439.7 | –
288.15 K | 1017 kg/m3 and 1016.1 kg/m3 | 1.43414 | 1420.3 | 4.337
293.15 K | 1012.3 kg/m3 and 1011.5 kg/m3 | 1.43196 | 1401 | 3.846
298.15 K | 1006.8 kg/m3 and 1007.6 kg/m3 | 1.42992 | 1382 | 3.335
303.15 K | 1002.2 kg/m3 and 1003.1 kg/m3 | 1.42777 | 1363.1 | 2.967
308.15 K | 997.6 kg/m3 and 998.8 kg/m3 | – | 1344.3 | 2.66
313.15 K | 993 kg/m3 and 994.1 kg/m3 | 1.42373 | 1325.6 | 2.389
318.15 K | 989.5 kg/m3 | – | – | 2.183
323.15 K | 983.7 kg/m3 and 984.9 kg/m3 | 1.41973 | 1289.1 | 1.995
328.15 K | 980.2 kg/m3 | – | – | 1.832
333.15 K | 974.5 kg/m3 and 975.6 kg/m3 | 1.41578 | 1253.4 | 1.677
338.15 K | 971 kg/m3 | – | – | 1.566
343.15 K | 966.5 kg/m3 and 965.3 kg/m3 | 1.41174 | 1218.5 | 1.456
348.15 K | 961.9 kg/m3 | – | – | 1.358
353.15 K | 957.3 kg/m3 | 1.40773 | – | 1.25
358.15 K | 952.7 kg/m3 | – | – | 1.188
363.15 K | 948.1 kg/m3 | – | – | 1.115
368.15 K | 943.5 kg/m3 | – | – | 1.047
373.15 K | 938.9 kg/m3 | – | – | 0.978

COCCOCCOCCOC [2,5,8,11-tetraoxadodecane]
Settings | mass density, [2] | refractive index, [1] | speed of sound, [2] [m/s] | viscosity, [2] [mPa·s]
283.15 K | 994.1 kg/m3 | 1.42712 | 1401.4 | –
288.15 K | 990.8 kg/m3 and 989.4 kg/m3 | 1.42498 | 1381.4 | 2.414
293.15 K | 986 kg/m3 and 984.6 kg/m3 | 1.42284 | 1361.6 | 2.162
298.15 K | 979.9 kg/m3 and 981.5 kg/m3 | 1.42071 | 1342.1 | 1.956
303.15 K | 975.1 kg/m3 and 976.7 kg/m3 | 1.41862 | 1322.8 | 1.777
308.15 K | 970.4 kg/m3 and 971.9 kg/m3 | – | 1303.6 | 1.623
313.15 K | 965.6 kg/m3 and 967.2 kg/m3 | 1.41434 | 1284.4 | 1.439
318.15 K | 962.4 kg/m3 | – | – | 1.373
323.15 K | 956.1 kg/m3 and 957.7 kg/m3 | 1.41005 | 1246.9 | 1.27
328.15 K | 952.9 kg/m3 | – | – | 1.179
333.15 K | 946.5 kg/m3 and 948.1 kg/m3 | 1.40579 | 1209.9 | 1.064
338.15 K | 943.3 kg/m3 | – | – | 1.026
343.15 K | 938.6 kg/m3 and 936.9 kg/m3 | 1.40153 | 1174 | 0.962
348.15 K | 933.8 kg/m3 | – | – | 0.903
353.15 K | 929 kg/m3 | 1.39723 | – | 0.814
358.15 K | 924.2 kg/m3 | – | – | 0.801
363.15 K | 919.4 kg/m3 | – | – | 0.756
368.15 K | 914.5 kg/m3 | – | – | 0.715
373.15 K | 909.7 kg/m3 | – | – | 0.65
